Assay results as given in US5948796A, “Benzo[B]thiophene compounds, intermediates, formulations, and methods” (Eli Lilly and Company, priority 1997, dated 1999).
Counter-ions that a name gives are not always drawn.

Key:
[1] = tested on: ovariectomized (OVX) female Sprague Dawley rats, uterus; experiment: Uterine weight in ovariectomized rats (post-menopausal model); format: in vivo; details: daily for 4 days, * p < 0.05
Method: (§1) In the examples illustrating the methods, a post-menopausal model was used in which effects of different treatments upon circulating lipids were determined.
(§2) Seventy-five day old female Sprague Dawley rats (weight range of 200 to 225 g) are obtained from Charles River Laboratories (Portage, Mich.). The animals are either bilaterally ovariectomized (OVX) or exposed to a Sham surgical procedure at Charles River Laboratories, and then shipped after one week. Upon arrival, they are housed in metal hanging cages in groups of 3 or 4 per cage and have ad libitum access to food (calcium content approximately 0.5%) and water for one week. Room temperature is maintained at 22.2°±1.7° C. with a minimum relative humidity of 40%. The photoperiod in the room is 12 hours light and 12 hours dark.
(§3) Dosing Regimen Tissue Collection. After a one week acclimation period (therefore, two weeks post-OVX) daily dosing with test compound is initiated. 17α-ethynyl estradiol or the test compound are given orally, unless otherwise stated, as a suspension in 1% carboxymethylcellulose or dissolved in 20% cyclodextrin. Animals are dosed daily for 4 days. Following the dosing regimen, animals are weighed and anesthetized with a ketamine: Xylazine (2:1, V:V) mixture and a blood sample is collected by cardiac puncture. The animals are then sacrificed by asphyxiation with CO2, the uterus is removed through a midline incision, and a wet uterine weight is determined.
(§4) In accordance with the above procedures, compounds of the present invention and ethynyl estradiol (EE2) in 20% hydroxypropyl β-cyclodextrin are orally administered to test animals.

[2] = tested on: Eosinophil peroxidase; experiment: Uterine Eosinophil Peroxidase (EPO) Assay in ovariectomized rats; format: in vivo, female Sprague Dawley rats; details: daily for 4 days, OVX rats, * p < 0.05
Method: as §1, §2, §3
Uterine Eosinophil Peroxidase (EPO) Assay. Uteri are kept at 4° C. until time of enzymatic analysis. The uteri are then homogenized in 50 volumes of 50 mM Tris buffer (pH-8.0) containing 0.005% Triton X-100. Upon addition of 0.01% hydrogen peroxide and 10 mM O-phenylenediamine (final concentrations) in Tris buffer, increase in absorbance is monitored for one minute at 450 nm. The presence of eosonophils in the uterus is an indication of estrogenic activity of a compound. The maximal velocity of a 15 second interval is determined over the initial, linear portion of the reaction curve.
as §4

[3] = tested on: serum cholesterol; experiment: Cholesterol Analysis (serum cholesterol in ovariectomized rats); format: in vivo, female Sprague Dawley rats; details: daily for 4 days, OVX rats, * p < 0.05
Method: as §1, §2, §3
Cholesterol Analysis. Blood samples are allowed to clot at ambient temperature for 2 hours, and serum is obtained following centrifugation for 10 minutes at 3000 rpm. Serum cholesterol is determined using a Boehringer Mannheim Diagnostics high performance cholesterol assay. Briefly, the cholesterol is oxidized to cholest-4-en-3-one and hydrogen peroxide. The hydrogen peroxide is then reacted with phenol and 4-aminophenazone in the presence of peroxidase to produce a p-quinone imine dye, which is read spectrophotemetrically at 500 nm. Cholesterol concentration is then calculated against a standard curve.
as §4

[4] = tested on: MCF-7 breast adenocarcinoma cells; experiment: MCF-7 Proliferation Assay; format: cell-based; details: Homo sapiens, MCF7; MCF-7 cells; 48 hours; tritiated thymidine pulse 4 hours
Method: As evidence of the current invention treat estrogen dependent cancer, the following assay was performed.
MCF-7 Proliferation Assay
MCF-7 breast adenocarcinoma cells (ATCC HTB 22) were maintained in MEM (minimal essential medium, phenol red-free, Sigma, St. Louis, Mo.) supplemented with 10% fetal bovine serum (FBS) (V/V), L-glutamine (2 mM), sodium pyruvate (1 mM), HEPES {(N-[2-hydroxyethyl]piperazine-N'-[2-ethanesulfonic acid]10 mM}, non-essential amino acids and bovine insulin (1 ug/mL) (maintenance medium). Ten days prior to assay, MCF-7 cells were switched to maintenance medium supplemented with 10% dextran coated charcoal stripped fetal bovine serum (DCC-FBS) assay medium) in place of 10% FBS to deplete internal stores of steroids. MCF-7 cells were removed from maintenance flasks using cell dissociation medium [Ca++/Mg++ free HBSS (phenol red-free) supplemented with 10 mM HEPES and 2 mM EDTA]. Cells were washed twice with assay medium and adjusted to 80,000 cells/mL. Approximately […] (8,000 cells) were added to flat-bottom microculture wells (Costar 3596) and incubated at 37° C. in a 5% CO2 humidified incubator for 48 hours to allow for cell adherence and equilibration after transfer. […] Samples were counted by liquid scintillation using a Wallac BetaPlace β counter. […]

## C#C[C@]1(O)CC[C@H]2[C@@H]3CCc4cc(O)ccc4[C@H]3CC[C@@]21C [EE2, 17α-ethynyl estradiol, reference compound]
[1]; dose printed "0." mg/kg PO
  Uterine Wt. (% Inc.), % increase versus the ovariectomized controls: 171.2%
[2]; dose printed "0." mg/kg PO
  Uterine EPO (Vmax): 142.4

## COc1ccc(-c2sc3cc(C)ccc3c2C(=O)c2ccc(OCCN3CCCCC3)cc2)cc1 [Example 1, [2-(4-Methoxyphenyl)-6-methylbenzo[b]thien-3-yl}[4-[2-(1-piperdinyl)ethoxy]phenyl]methanone Hydrochloride]
[1]; 0.1 mg/kg PO
  Uterine Wt. (% Inc.), % increase versus the ovariectomized controls: -11.4%
[1]; 1 mg/kg PO
  Uterine Wt. (% Inc.), % increase versus the ovariectomized controls: -4.6%
[1]; 10 mg/kg PO
  Uterine Wt. (% Inc.), % increase versus the ovariectomized controls: 2.1%
[2]; 0.1 mg/kg PO
  Uterine EPO (Vmax): 1.4
[2]; 1 mg/kg PO
  Uterine EPO (Vmax): 1.6
[2]; 10 mg/kg PO
  Uterine EPO (Vmax): 5.2
[3]; 0.1 mg/kg PO
  Serum Cholesterol (% Dec.), decrease versus ovariectomized controls: -20.3%
[3]; 1 mg/kg PO
  Serum Cholesterol (% Dec.), decrease versus ovariectomized controls: 17.2%
[3]; 10 mg/kg PO
  Serum Cholesterol (% Dec.), decrease versus ovariectomized controls: 34.8%
[4]
  IC50: 500 nM

## Cc1ccc2c(C(=O)c3ccc(OCCN4CCCCC4)cc3)c(-c3ccc(O)cc3)sc2c1 [Example 2, [2-(4-Hydroxyphenyl)-6-methylbenzo[b]thien-3-yl}[4-[2-(1-piperdinyl)ethoxy]phenyl]methanone Hydrochloride]
[1]; 0.1 mg/kg PO
  Uterine Wt. (% Inc.), % increase versus the ovariectomized controls: -9.0%
[1]; 1 mg/kg PO
  Uterine Wt. (% Inc.), % increase versus the ovariectomized controls: 23.9%
[1]; 10 mg/kg PO
  Uterine Wt. (% Inc.), % increase versus the ovariectomized controls: 29.0%
[2]; 0.1 mg/kg PO
  Uterine EPO (Vmax): 2.0
[2]; 1 mg/kg PO
  Uterine EPO (Vmax): 2.8
[2]; 10 mg/kg PO
  Uterine EPO (Vmax): 2.9
[3]; 0.1 mg/kg PO
  Serum Cholesterol (% Dec.), decrease versus ovariectomized controls: 16.9%
[3]; 1 mg/kg PO
  Serum Cholesterol (% Dec.), decrease versus ovariectomized controls: 33.8%
[3]; 10 mg/kg PO
  Serum Cholesterol (% Dec.), decrease versus ovariectomized controls: 21.6%
[4]
  IC50: 100 nM
